Active and inactive are the calls of the source.
How the values were obtained:
Type in all cases: functional, organism-based
Rattus norvegicus [1] = assay: Analgesic activity in rat acute pain model at 3 mg/kg by tail flick test
Rattus norvegicus [2] = assay: Analgesic activity in rat acute pain model at 3 mg/kg by hot plate test
Mus musculus = assay: Anti-allodynic activity in mouse model of CCI induced neuropathic pain assessed as increase in paw withdrawal threshold at 3 mg/kg, po by static von frey test
Rattus norvegicus [3] = assay: Anti-allodynic activity in rat model of STZ induced diabetic neuropathy assessed as reduction in mechanical allodynia by measuring increase in paw withdrawal threshold at 1 mg/kg, po measured after 30 min by electronic von frey test
Rattus norvegicus [4] = assay: Anti-allodynic activity in rat model of STZ induced diabetic neuropathy assessed as reduction in mechanical hyperalgesia by measuring increase in weight bearing at 25 mg/kg, po measured after 90 min by paw pressure test
Rattus norvegicus [5] = assay: Anti-allodynic activity in rat model of STZ induced diabetic neuropathy assessed as reduction in mechanical allodynia by measuring increase in paw withdrawal threshold at 25 mg/kg, po measured for 90 min by electronic von frey test
Rattus norvegicus [6] = assay: Anti-allodynic activity in rat model of STZ induced diabetic neuropathy assessed as reduction in mechanical hyperalgesia by measuring increase in weight bearing at 1 mg/kg, po measured after 30 min by paw pressure test
Rattus norvegicus [7] = assay: Analgesic activity in rat acute pain model at 1 to 10 mg/kg by hot plate test; settings: dose 1-10 mg/kg
Rattus norvegicus [8] = assay: Analgesic activity in rat acute pain model at 1 to 10 mg/kg by tail flick test; settings: dose 1-10 mg/kg

SMILES	Activity (Rattus norvegicus [1])	Activity (Rattus norvegicus [2])	Activity (Mus musculus)	Activity (Rattus norvegicus [3])	Activity (Rattus norvegicus [4])	Activity (Rattus norvegicus [5])	Activity (Rattus norvegicus [6])	Activity (Rattus norvegicus [7])	Activity (Rattus norvegicus [8])
CN1CC[C@]23c4c5ccc(O)c4O[C@H]2[C@@H](O)C=C[C@H]3[C@H]1C5	Active	Active							
CN1CCc2c(c3cccc4c3n2CCc2ccccc2-4)C1			Active	Active	Active	Active	Active	inactive	inactive
